Measured values as given in patent US12059400B2, “Medical compound” (VERA SALUS RICERCA S.R.L., priority 2017, dated 2024).

Legend:
Assay type in all cases: cell-based
[1] = tested on: human bladder carcinoma cells (T24); experiment: Cell proliferation, crystal violet method; conditions: for T24 cell growth vs vehicle control: 80 μM, FIG. 10a, 10b; for IC50: crystal violet, spectrophotometer, read-out: IC50 anti-proliferative effect, BC (T24)
Description: The compound according to the invention, and in particular the synthetic quercetin derivatives described and illustrated herein were investigated in vitro by using human tumour cells and assessing their impact on the tumour proliferative capacity, with regard to the tumours described above. In particular, the following human tumour cell lines were assessed experimentally: 1) HCT116, colon adenocarcinoma cells; 2) H1299, lung adenocarcinoma cells; 3) A375, melanoma cells, and 4) A431, squamous skin cell carcinoma; 5) 786-0, renal carcinoma cells; 6) PC3, prostate carcinoma cells; 7) BT549, mammary carcinoma cells; 8) CAL27, tongue carcinoma cells (belonging to the head-and-neck carcinomas); 9) HepG2, hepatocellular carcinoma cells; 10) PANC-1, pancreas carcinoma cells; 11) T24, bladder carcinoma cells; 12) OVCAR-3, ovarian carcinoma cells. In addition, a normal human cell line, WS1 (skin fibroblasts) was also treated with the novel synthetic compounds. Cell proliferation was quantified by the crystal violet method with a spectrophotometer. In short, after acquiring serial images (0, 24 and 48 hrs) with the EVOS XL Cell Imaging System microscope (Thermo Fisher Scientific), the cells imaged at 48 hrs were fixed with paraformaldehyde (4%) and stained with Crystal Violet (1%). Then, the specific absorbance (λ=590 nm) at 48 hrs was measured with a spectrophotometer (Infinite®200 PRO, Tecan). Data analysis was carried out by using ad-hoc Excel files for graphical representation and statistical processing (t-test). Moreover, the results obtained with Crystal Violet were confirmed by using another cell proliferation assessment method based on the real time cellular analyzer XCELLigence RTCA DP (ACEA Biosciences, Inc.). This tool allows cell growth to be monitored from electrical impedance-derived quantitative values (the so-called Cell Index) measured by tiny electrodes located at the base of the culture wells. Proliferation is monitored for several days (5-7) by setting a Cell Index per minute measure on the instrument. The data are analysed by processing various parameters calculated by the dedicated software, such as the cell duplication time, the slope and the Max Cell Index. […] Cell proliferation was quantitated spectrophotometrically by the crystal violet method.

[2] = tested on: human ovarian carcinoma cells (OVCAR-3); experiment: Cell proliferation, crystal violet method
[3] = tested on: human skin fibroblasts (WS1); experiment: Cell proliferation of normal cells, crystal violet method; conditions: at the indicated concentrations (not given); FIG. 17
Description: The compound according to the invention, and in particular the synthetic quercetin derivatives described and illustrated herein were investigated in vitro by using human tumour cells and assessing their impact on the tumour proliferative capacity, with regard to the tumours described above. In particular, the following human tumour cell lines were assessed experimentally: 1) HCT116, colon adenocarcinoma cells; 2) H1299, lung adenocarcinoma cells; 3) A375, melanoma cells, and 4) A431, squamous skin cell carcinoma; 5) 786-0, renal carcinoma cells; 6) PC3, prostate carcinoma cells; 7) BT549, mammary carcinoma cells; 8) CAL27, tongue carcinoma cells (belonging to the head-and-neck carcinomas); 9) HepG2, hepatocellular carcinoma cells; 10) PANC-1, pancreas carcinoma cells; 11) T24, bladder carcinoma cells; 12) OVCAR-3, ovarian carcinoma cells. In addition, a normal human cell line, WS1 (skin fibroblasts) was also treated with the novel synthetic compounds. Cell proliferation was quantified by the crystal violet method with a spectrophotometer. In short, after acquiring serial images (0, 24 and 48 hrs) with the EVOS XL Cell Imaging System microscope (Thermo Fisher Scientific), the cells imaged at 48 hrs were fixed with paraformaldehyde (4%) and stained with Crystal Violet (1%). Then, the specific absorbance (λ=590 nm) at 48 hrs was measured with a spectrophotometer (Infinite®200 PRO, Tecan). Data analysis was carried out by using ad-hoc Excel files for graphical representation and statistical processing (t-test). […] This tool allows cell growth to be monitored from electrical impedance-derived quantitative values (the so-called Cell Index) measured by tiny electrodes located at the base of the culture wells. Proliferation is monitored for several days (5-7) by setting a Cell Index per minute measure on the instrument. The data are analysed by processing various parameters calculated by the dedicated software, such as the cell duplication time, the slope and the Max Cell Index.

Row | Substance | IC50 [1] [µM] | IC50 ([2]; crystal violet, spectrophotometer, read-out: IC50 anti-proliferative effect, OCC - (OVCAR)) [µM] | T24 cell growth vs vehicle control [1] | OVCAR-3 cell growth vs vehicle control ([2]; 60 μM, FIG. 11a, 11b) | proliferation of normal human skin fibroblasts (WS1) vs vehicle control [3]
1 | 2-(3,4-Dihydroxyphenyl)-3-ethoxy-5,7-dihydroxy-4H-chromen-4-one [Compound 1] | > 1000 | – | – | – | –
2 | 2-(3,4-Dihydroxyphenyl)-3-hexyloxy-5,7-dihydroxy-4H-chromen-4-one [Compound 2] | 66.8 | – | significantly inhibit | – | do not disrupt
3 | 2-(3,4-Dihydroxyphenyl)-3-hexadecyloxy-5,7-dihydroxy-4H-chromen-4-one [Compound 3] | 44.9 | – | significantly inhibit | – | –

Now from value to substance, other results behind:

Row | IC50 [1] [µM] | IC50 ([2]; crystal violet, spectrophotometer, read-out: IC50 anti-proliferative effect, OCC - (OVCAR)) [µM] | Substance | T24 cell growth vs vehicle control [1] | OVCAR-3 cell growth vs vehicle control ([2]; 60 μM, FIG. 11a, 11b) | proliferation of normal human skin fibroblasts (WS1) vs vehicle control [3]
4 | 45.5 | – | 2-(3,4-dihydroxyphenyl)-5,7-dihydroxy-4-oxo-4H-chromen-3-yl acetate [Compound 4] | significantly inhibit | – | –
5 | 50.5 | 79.2 | 2-(3,4-dihydroxyphenyl)-5,7-dihydroxy-4-oxo-4H-chromen-3-yl palmitate [Compound 5] | significantly inhibit | significantly inhibit | –
